Legend:
JAK3 = target: T1, JAK3 (Homo sapiens, UniProt P52333); experiment: Z'-LYTE kinase assay JAK3; format: biochemical
T1 construct: 5 μl of catalytic domain recombinant Kinase enzyme+Tyr peptide substrate (Invitrogen, CA); purchased Invitrogen
Procedure, shortened: (§1)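 Catalytic-domain recombinant kinase was incubated with Tyr6 FRET peptide, ATP and compound (1% DMSO final) for 1 h at room temperature. Protease development followed for 1 h, cleaving only non-phosphorylated peptide. Inhibition of phosphorylation was read as coumarin/fluorescein FRET fluorescence.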

JAK2 = target: T2, JAK2 (Homo sapiens, UniProt O60674); experiment: Z'-LYTE kinase assay JAK2; format: biochemical
T2 construct: 5 μl of catalytic domain recombinant Kinase enzyme+Tyr peptide substrate (Invitrogen, CA); purchased Invitrogen
T2 sequence (O60674 849-1124 limits assumed): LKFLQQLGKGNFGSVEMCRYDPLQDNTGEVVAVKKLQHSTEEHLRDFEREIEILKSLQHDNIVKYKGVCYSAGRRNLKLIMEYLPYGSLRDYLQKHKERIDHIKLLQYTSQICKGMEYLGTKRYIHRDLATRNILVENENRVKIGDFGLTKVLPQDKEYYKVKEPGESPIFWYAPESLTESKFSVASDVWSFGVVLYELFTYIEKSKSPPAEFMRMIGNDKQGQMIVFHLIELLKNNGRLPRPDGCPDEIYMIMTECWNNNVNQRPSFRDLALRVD
Procedure, shortened: as §1

JAK1 = target: T3, JAK1 (Homo sapiens, UniProt P23458); experiment: Z'-LYTE kinase assay JAK1; format: biochemical
T3 construct: 5 μl of catalytic domain recombinant Kinase enzyme+Tyr peptide substrate (Invitrogen, CA); purchased Invitrogen
T3 sequence (P23458 875-1153 limits assumed): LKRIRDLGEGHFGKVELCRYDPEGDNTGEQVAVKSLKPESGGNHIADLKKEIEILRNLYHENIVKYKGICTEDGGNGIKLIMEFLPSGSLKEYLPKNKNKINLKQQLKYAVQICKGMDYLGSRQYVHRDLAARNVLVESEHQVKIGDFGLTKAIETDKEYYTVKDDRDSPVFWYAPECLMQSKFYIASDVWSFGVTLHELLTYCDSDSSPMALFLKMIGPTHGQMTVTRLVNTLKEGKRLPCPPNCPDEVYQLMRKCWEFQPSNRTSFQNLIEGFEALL
Procedure, shortened: as §1

[1] = test system: JAK1/3 signaling to STAT6 in Ramos B cells; experiment: IL4 stimulation of JAK1/3 signaling to STAT6 in Ramos B cells (pSTAT6 Y641, FACS); format: cell-based; details: Homo sapiens; for inhibition at 0.2 µM: 0.2 uM compound, read-out: IL-4/STAT6 in Ramos Percent Inhibition at 0.2 uM; for inhibition at 1 µM: 1.0 uM compound, read-out: IL-4/STAT6 in Ramos Percent Inhibition at 1.0 uM
Description: IL4 stimulation of JAK1/3 signaling to STATE in Ramos B cells:
As an alternative strategy to measure effect of JAK3 inhibitors on JAK1/3 dependent cytokine signaling pathways, IL4 stimulation of the Ramos Burkett's B cell line is used. IL4 engages a receptor consisting of the IL4 receptor alpha chain and the common gamma chain. […] Ramos B cells are suspended in tissue culture media containing 10% fetal calf serum at 10×10̂6 cells/ml. 100 μl aliquots are pre-treated for 1 hour with various concentrations of compound, and then stimulated for 15 minutes with 15 ng IL4. The signaling reaction is terminated by fixing in 2% paraformaldehyde for 10 minutes at room temperature. Fixed cells are then washed and permeablized by suspension in 100% methanol at −80° C. Following overnight incubation at 4° C., cells are washed and resuspended in PBS containing 0.5% bovine serum albumin containing pSTAT6 Y641-PE conjugated antibody. After 1 hour incubation, cells are washed and the extent of STAT6 phosphorlyation in Ramos cells is measured by FACS analysis.

T1 sequence (P52333 822-1111 limits assumed): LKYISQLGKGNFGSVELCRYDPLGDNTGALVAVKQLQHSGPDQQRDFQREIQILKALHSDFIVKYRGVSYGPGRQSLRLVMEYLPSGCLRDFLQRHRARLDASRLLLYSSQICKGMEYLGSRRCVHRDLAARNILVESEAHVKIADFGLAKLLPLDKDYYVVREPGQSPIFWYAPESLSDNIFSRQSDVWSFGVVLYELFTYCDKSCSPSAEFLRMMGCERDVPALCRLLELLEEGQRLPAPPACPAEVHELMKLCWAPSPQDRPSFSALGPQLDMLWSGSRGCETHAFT

SMILES | IC50 (JAK3) | IC50 (JAK2) | IC50 (JAK1) | inhibition at 0.2 µM [1] | inhibition at 1 µM [1]
CC(=O)N1CCN(c2ccc(Nc3cc(NC(CO)c4ccccc4)c(C(N)=O)cn3)cc2)CC1 (centres unmarked) [Example 231] | – | – | – | 13% | 16%
NC(=O)c1cnc(Nc2cccc(OCCN3CCOCC3)c2)cc1NC(CO)c1ccccc1 (centres unmarked) [Example 230] | – | – | – | 21% | 36%
NC(=O)c1cnc(Nc2cccc(NC(=O)N3CCOCC3)c2)cc1NCc1cccnc1 [Example 232] | – | – | – | 4% | 5%
NC(=O)c1cnc(Nc2cccc(C3CCN(C4CCCC4)CC3)c2)cc1NCc1ccccc1F [Example 110, 6-(3-(1-cyclopentylpiperidin-4-yl)phenylamino)-4-(2-fluorobenzylamino)nicotinamide] | 0.001 to 0.01 µM | 0.01 to 0.1 µM | 0.1 to 1 µM | 24% | 68%
NC(=O)c1cnc(Nc2cccc(N3CCCCC3)c2)cc1N[C@H](CO)c1ccccc1 [Example 76, (S)-4-(2-hydroxy-1-phenylethylamino)-6-(3-(piperidin-1-yl)phenylamino)nicotinamide] | 0.01 to 0.1 µM | > 1 µM | > 1 µM | 8% | 20%
CS(=O)(=O)N1CCC(c2ccc(Nc3cc(NCc4ccccc4F)c(C(N)=O)cn3)cc2)CC1 [Example 111, 4-(2-fluorobenzylamino)-6-(4-(1-(methylsulfonyl)piperidin-4-yl)phenylamino)nicotinamide] | 0.01 to 0.1 µM | > 1 µM | > 1 µM | 22% | 46%
COc1ccc(Nc2cc(NCc3c(F)cccc3F)c(C(N)=O)cn2)cc1 [Example 82, 4-(2,6-difluorobenzylamino)-6-(4-methoxyphenylamino)nicotinamide] | 0.01 to 0.1 µM | 0.1 to 1 µM | 0.1 to 1 µM | 7% | 34%
COc1ccc(Nc2cc(NCc3cccc(F)n3)c(C(N)=O)cn2)cc1 [Example 315, 4-((6-fluoropyridin-2-yl)methylamino)-6-(4-methoxyphenylamino)nicotinamide] | 0.01 to 0.1 µM | 0.1 to 1 µM | 0.1 to 1 µM | – | –

Further lines, with some results ahead:

IC50 (JAK3) | IC50 (JAK2) | IC50 (JAK1) | SMILES | inhibition at 0.2 µM [1] | inhibition at 1 µM [1]
0.001 to 0.01 µM | 0.01 to 0.1 µM | 0.01 to 0.1 µM | NC(=O)c1cnc(Nc2ccc(C(=O)N3CCC3)cc2)cc1NCc1cc(F)ccc1F [Example 93, 6-(4-(azetidine-1-carbonyl)phenylamino)-4-(2,5-difluorobenzylamino)nicotinamide] | 43% | 76%
0.01 to 0.1 µM | 0.1 to 1 µM | > 1 µM | CN(C)C(=O)N1CCC(c2ccc(Nc3cc(NCc4ccccc4F)c(C(N)=O)cn3)cc2)CC1 [Example 114, 6-(4-(1-(dimethylcarbamoyl)piperidin-4-yl)phenylamino)-4-(2-fluorobenzylamino)nicotinamide] | 14% | 51%
0.01 to 0.1 µM | 0.1 to 1 µM | > 1 µM | NC(=O)c1cnc(Nc2ccc3c(c2)NC(=O)CO3)cc1NCc1ccccc1 [Example 84, 4-(benzylamino)-6-(3-oxo-3,4-dihydro-2H-benzo[b][1,4]oxazin-6-ylamino)nicotinamide] | 3% | 8%
0.001 to 0.01 µM | 0.01 to 0.1 µM | 0.1 to 1 µM | CC(C)N1CCC(c2ccc(Nc3cc(NCc4ccccc4F)c(C(N)=O)cn3)cc2)CC1 [Example 108, 4-(2-fluorobenzylamino)-6-(4-(1-isopropylpiperidin-4-yl)phenylamino)nicotinamide] | 14% | 37%
0.01 to 0.1 µM | 0.1 to 1 µM | > 1 µM | COc1ccc(Nc2cc(NCc3cccc(F)c3)c(C(N)=O)cn2)cc1 [Example 91, 4-(3-fluorobenzylamino)-6-(4-methoxyphenylamino)nicotinamide] | 6% | 16%
0.01 to 0.1 µM | 0.1 to 1 µM | 0.1 to 1 µM | COc1ccc(Nc2cc(NCc3cc(F)ccc3F)c(C(N)=O)cn2)cc1 [Example 83, 4-(2,5-difluorobenzylamino)-6-(4-methoxyphenylamino)nicotinamide] | 10% | 23%
0.01 to 0.1 µM | 0.1 to 1 µM | > 1 µM | NC(=O)c1cnc(Nc2cccc(N3CCCCC3)c2)cc1NCc1cccc(F)c1 [Example 68, 4-(3-fluorobenzylamino)-6-(3-(piperidin-1-yl)phenylamino)nicotinamide] | – | 7%
0.01 to 0.1 µM | > 1 µM | > 1 µM | CCS(=O)(=O)N1CCC(c2ccc(Nc3cc(NCc4ccccc4F)c(C(N)=O)cn3)cc2)CC1 [Example 112, 6-(4-(1-(ethylsulfonyl)piperidin-4-yl)phenylamino)-4-(2-fluorobenzylamino)nicotinamide] | 8% | 42%
0.001 to 0.01 µM | 0.1 to 1 µM | 0.1 to 1 µM | CN(C)C(=O)C1CN(c2ccc(Nc3cc(NCc4ccccc4)c(C(N)=O)cn3)cc2F)C1 [Example 342, 4-(benzylamino)-6-(4-(3-(dimethylcarbamoyl)azetidin-1-yl)-3-fluorophenylamino)nicotinamide] | – | –
0.01 to 0.1 µM | 0.1 to 1 µM | > 1 µM | CCC(=O)N(C)c1ccc(Nc2cc(NCc3cccc4cc[nH]c34)c(C(N)=O)cn2)cc1 [Example 477, 4-((1H-indol-7-yl)methylamino)-6-(4-(N-methylpropionamido)phenylamino)nicotinamide] | – | –
0.1 to 1 µM | 0.1 to 1 µM | > 1 µM | CC(=O)N1CCC[C@H](CNc2cc(Nc3ccc(C(=O)N(C)C)c(N(C)C)c3)ncc2C(N)=O)C1 [Example 445, (R)-4-((1-acetylpiperidin-3-yl)methylamino)-6-(3-(dimethylamino)-4-(dimethylcarbamoyl)phenylamino)nicotinamide] | – | –
